# Reference: ChEMBL document CHEMBL1201862, “PubChem BioAssay data set” (2004)
#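 The compound was tested at five concentrations on cells cultured in 96-well plates, with a 48-hour exposure period. GI50 marks 50% less growth.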 The source made the active and inactive calls. Cut-off read from the data, not from the text of the source: active = GI50 up to about 1.1 µM and inactive = higher.
# Key:
# Test in all cases: inhibition of tumour cell growth, NCI panel, 48 h
# M14 = tested on: M14
# HOP-92 = tested on: HOP-92
# Hs-578T = tested on: Hs-578T
# RXF 393 = tested on: RXF 393
# SN12C = tested on: SN12C
# OVCAR-8 = tested on: OVCAR-8
# BT-549 = tested on: BT-549
# COLO 205 = tested on: COLO 205
# DU-145 = tested on: DU-145
# NCI-H522 = tested on: NCI-H522
# K562 = tested on: K562
# TK-10 = tested on: TK-10
# SK-MEL-5 = tested on: SK-MEL-5
# SF-268 = tested on: SF-268
# SK-MEL-2 = tested on: SK-MEL-2
# HCT-15 = tested on: HCT-15
# MDA-N = tested on: MDA-N
# T47D = tested on: T47D
# SNB-19 = tested on: SNB-19
# EKVX = tested on: EKVX
# UACC-257 = tested on: UACC-257
# ACHN = tested on: ACHN
# LOX IMVI = tested on: LOX IMVI
# A549 = tested on: A549
# HCT-116 = tested on: HCT-116
# HL-60 = tested on: HL-60
# 786-0 = tested on: 786-0
# CAKI-1 = tested on: CAKI-1
# SF-295 = tested on: SF-295
# A498 = tested on: A498
# OVCAR-3 = tested on: OVCAR-3
# U-251 = tested on: U-251
# Malme-3M = tested on: Malme-3M
# RPMI-8226 = tested on: RPMI-8226
# HT-29 = tested on: HT-29
# KM12 = tested on: KM12
# MDA-MB-231 = tested on: MDA-MB-231
# OVCAR-5 = tested on: OVCAR-5
# PC-3 = tested on: PC-3
# IGROV-1 = tested on: IGROV-1
# HOP-62 = tested on: HOP-62
# SF-539 = tested on: SF-539
# SK-MEL-28 = tested on: SK-MEL-28
# NCI/ADR-RES = tested on: NCI/ADR-RES
# HCC 2998 = tested on: HCC 2998
# SNB-75 = tested on: SNB-75
# MDA-MB-435 = tested on: MDA-MB-435
# MCF7 = tested on: MCF7
# SW-620 = tested on: SW-620
# CCRF-CEM = tested on: CCRF-CEM
# OVCAR-4 = tested on: OVCAR-4
# UO-31 = tested on: UO-31
# SK-OV-3 = tested on: SK-OV-3
# NCI-H226 = tested on: NCI-H226
# UACC-62 = tested on: UACC-62
# MOLT-4 = tested on: MOLT-4
# NCI-H460 = tested on: NCI-H460
# NCI-H23 = tested on: NCI-H23
compound,measurement,setting,value
S=C(S)N1CCN(c2ccccc2)CC1,GI50,M14,> 100 µM (inactive)
same,GI50,HOP-92,> 100 µM (inactive)
same,GI50,Hs-578T,> 100 µM (inactive)
same,GI50,RXF 393,> 100 µM (inactive)
same,GI50,SN12C,> 100 µM (inactive)
same,GI50,OVCAR-8,> 100 µM (inactive)
same,GI50,BT-549,> 100 µM (inactive)
same,GI50,COLO 205,57.5 µM (inactive)
same,GI50,DU-145,> 100 µM (inactive)
same,GI50,NCI-H522,> 100 µM (inactive)
same,GI50,K562,52.6 µM (inactive)
same,GI50,TK-10,> 100 µM (inactive)
same,GI50,SK-MEL-5,20.7 µM (inactive)
same,GI50,SF-268,88.3 µM (inactive)
same,GI50,SK-MEL-2,37.9 µM (inactive)
same,GI50,HCT-15,> 100 µM
same,GI50,MDA-N,> 100 µM (inactive)
same,GI50,T47D,> 100 µM (inactive)
same,GI50,SNB-19,> 100 µM (inactive)
same,GI50,EKVX,> 100 µM (inactive)
same,GI50,UACC-257,> 100 µM (inactive)
same,GI50,ACHN,> 100 µM (inactive)
same,GI50,LOX IMVI,32.9 µM (inactive)
same,GI50,A549,> 100 µM (inactive)
same,GI50,HCT-116,34.5 µM (inactive)
same,GI50,HL-60,9.31 µM (inactive)
same,GI50,786-0,45.1 µM (inactive)
same,GI50,CAKI-1,> 100 µM (inactive)
same,GI50,SF-295,> 100 µM (inactive)
same,GI50,A498,> 100 µM (inactive)
same,GI50,OVCAR-3,> 100 µM (inactive)
same,GI50,U-251,48.5 µM (inactive)
same,GI50,Malme-3M,> 100 µM (inactive)
same,GI50,RPMI-8226,27.5 µM (inactive)
same,GI50,HT-29,> 100 µM (inactive)
same,GI50,KM12,> 100 µM (inactive)
same,GI50,MDA-MB-231,> 100 µM (inactive)
same,GI50,OVCAR-5,> 100 µM (inactive)
same,GI50,PC-3,> 100 µM (inactive)
same,GI50,IGROV-1,> 100 µM (inactive)
same,GI50,HOP-62,> 100 µM (inactive)
same,GI50,SF-539,> 100 µM (inactive)
same,GI50,SK-MEL-28,45.9 µM (inactive)
same,GI50,NCI/ADR-RES,> 100 µM (inactive)
same,GI50,HCC 2998,71.3 µM (inactive)
same,GI50,SNB-75,> 100 µM (inactive)
same,GI50,MDA-MB-435,> 100 µM (inactive)
same,GI50,MCF7,> 100 µM (inactive)
same,GI50,SW-620,71.9 µM (inactive)
CCOc1cc2c(cc1O)CC[C@@H]1[C@@H]2CC[C@]2(C)C(N)CC[C@@H]12 (stereo not given in full),GI50,M14,4.05 µM (inactive)
same,GI50,HOP-92,10.6 µM (inactive)
same,GI50,Hs-578T,3.67 µM (inactive)
same,GI50,CCRF-CEM,1.73 µM (inactive)
same,GI50,RXF 393,1.21 µM (inactive)
same,GI50,OVCAR-4,19.3 µM (inactive)
same,GI50,SN12C,4.09 µM (inactive)
same,GI50,OVCAR-8,2.71 µM (inactive)
same,GI50,UO-31,3.54 µM (inactive)
same,GI50,BT-549,11.2 µM (inactive)
same,GI50,COLO 205,4.49 µM (inactive)
same,GI50,DU-145,2.36 µM (inactive)
same,GI50,NCI-H522,3.45 µM (inactive)
same,GI50,K562,3.89 µM (inactive)
same,GI50,SK-OV-3,3.19 µM (inactive)
same,GI50,TK-10,9.2 µM (inactive)
same,GI50,SK-MEL-5,3.56 µM (inactive)
same,GI50,SF-268,3.57 µM (inactive)
same,GI50,SK-MEL-2,4.32 µM (inactive)
same,GI50,HCT-15,3.4 µM
same,GI50,MDA-N,1.44 µM (inactive)
same,GI50,T47D,8.53 µM (inactive)
same,GI50,SNB-19,4.83 µM (inactive)
same,GI50,EKVX,4.27 µM (inactive)
same,GI50,UACC-257,3.44 µM (inactive)
same,GI50,ACHN,4.58 µM (inactive)
same,GI50,NCI-H226,2.77 µM (inactive)
same,GI50,UACC-62,3.91 µM (inactive)
same,GI50,LOX IMVI,4.06 µM (inactive)
same,GI50,A549,3.3 µM (inactive)
same,GI50,HCT-116,3.05 µM (inactive)
same,GI50,MOLT-4,5.93 µM (inactive)
same,GI50,HL-60,1.42 µM (inactive)
same,GI50,786-0,3.5 µM (inactive)
same,GI50,CAKI-1,4.22 µM (inactive)
same,GI50,SF-295,3.24 µM (inactive)
same,GI50,A498,5.52 µM (inactive)
same,GI50,OVCAR-3,0.811 µM (active)
same,GI50,U-251,2.89 µM (inactive)
same,GI50,Malme-3M,11.8 µM (inactive)
same,GI50,RPMI-8226,3.01 µM (inactive)
same,GI50,HT-29,2.44 µM (inactive)
same,GI50,KM12,1.58 µM (inactive)
same,GI50,MDA-MB-231,2.12 µM (inactive)
same,GI50,OVCAR-5,5.86 µM (inactive)
same,GI50,PC-3,2.93 µM (inactive)
same,GI50,IGROV-1,3.78 µM (inactive)
same,GI50,NCI-H460,2.91 µM (inactive)
same,GI50,HOP-62,5.94 µM (inactive)
same,GI50,SF-539,2.36 µM (inactive)
same,GI50,SK-MEL-28,9.62 µM (inactive)
same,GI50,NCI-H23,3.48 µM (inactive)
same,GI50,NCI/ADR-RES,2.69 µM (inactive)
same,GI50,HCC 2998,2.22 µM (inactive)
same,GI50,SNB-75,2.1 µM (inactive)
same,GI50,MDA-MB-435,1.63 µM (inactive)
same,GI50,MCF7,3.37 µM (inactive)
same,GI50,SW-620,3.04 µM (inactive)
CC[C@@]12C=CC(=S)N(CCSc3ccccc3)[C@@H]1c1c(n(S(=O)(=O)c3ccc(OC)cc3)c3ccccc13)CC2,GI50,M14,> 100 µM (inactive)
same,GI50,HOP-92,> 100 µM (inactive)
same,GI50,Hs-578T,> 100 µM (inactive)
same,GI50,CCRF-CEM,> 100 µM (inactive)
same,GI50,RXF 393,16.6 µM (inactive)
same,GI50,SN12C,> 100 µM (inactive)
same,GI50,OVCAR-8,> 100 µM (inactive)
same,GI50,UO-31,> 100 µM (inactive)
same,GI50,BT-549,> 100 µM (inactive)
same,GI50,COLO 205,> 100 µM (inactive)
same,GI50,DU-145,> 100 µM (inactive)
same,GI50,NCI-H522,> 100 µM (inactive)
same,GI50,K562,> 100 µM (inactive)
same,GI50,SK-OV-3,> 100 µM (inactive)
same,GI50,TK-10,> 100 µM (inactive)
same,GI50,SK-MEL-5,> 100 µM (inactive)
same,GI50,SF-268,> 100 µM (inactive)
same,GI50,SK-MEL-2,> 100 µM (inactive)
same,GI50,HCT-15,> 100 µM
same,GI50,MDA-N,> 100 µM (inactive)
same,GI50,T47D,> 100 µM (inactive)
same,GI50,SNB-19,> 100 µM (inactive)
same,GI50,EKVX,> 100 µM (inactive)
same,GI50,UACC-257,> 100 µM (inactive)
same,GI50,UACC-62,> 100 µM (inactive)
same,GI50,LOX IMVI,> 100 µM (inactive)
same,GI50,A549,> 100 µM (inactive)
same,GI50,HCT-116,> 100 µM (inactive)
same,GI50,MOLT-4,> 100 µM (inactive)
same,GI50,HL-60,> 100 µM (inactive)
same,GI50,786-0,> 100 µM (inactive)
same,GI50,CAKI-1,> 100 µM (inactive)
same,GI50,SF-295,> 100 µM (inactive)
same,GI50,A498,> 100 µM (inactive)
same,GI50,OVCAR-3,> 100 µM (inactive)
same,GI50,U-251,> 100 µM (inactive)
same,GI50,Malme-3M,> 100 µM (inactive)
same,GI50,HT-29,> 100 µM (inactive)
same,GI50,KM12,> 100 µM (inactive)
same,GI50,MDA-MB-231,> 100 µM (inactive)
same,GI50,OVCAR-5,> 100 µM (inactive)
same,GI50,PC-3,> 100 µM (inactive)
same,GI50,NCI-H460,> 100 µM (inactive)
same,GI50,HOP-62,> 100 µM (inactive)
same,GI50,SF-539,> 100 µM (inactive)
same,GI50,SK-MEL-28,> 100 µM (inactive)
same,GI50,NCI-H23,> 100 µM (inactive)
same,GI50,NCI/ADR-RES,> 100 µM (inactive)
same,GI50,HCC 2998,> 100 µM (inactive)
same,GI50,SNB-75,> 100 µM (inactive)
same,GI50,MDA-MB-435,> 100 µM (inactive)
same,GI50,MCF7,> 100 µM (inactive)
same,GI50,SW-620,> 100 µM (inactive)
